Test results as given in patent US20250026916A1, “ULTRAVIOLET ABSORBER AND USE THEREOF” (RIANLON (ZHONGWEI) NEW MATERIAL CO., LTD., priority 2023, published 2025).

How the values were obtained:
[1] = general description of the commercial product; cited from earlier work
[2] = Absorption spectrum in chloroform (UV-visible spectrophotometer); assay type: physicochemical; settings: chloroform solution 10 mg/L; for Peak area ratio in waveband 280-450 nm: total
Description: The absorption spectra were measured using an ultraviolet-visible spectrophotometer, and the instrument model is (UV-2600, Shimadzu corporation, Japan). The absorption spectra were compared in Table 1 below.

[3] = Color test, Gardner color scale of DMF solution; assay type: physicochemical; settings: 2 g dissolved in 18 g DMF
Description: The completely dissolved solution was transferred to a cuvette, and the Gardner color scale value transmitted by the solvent was measured. The instrument was a Ci7600 bench spectrophotometer (X-rite, the United States).

[4] = Solubility/compatibility test in typical oligomer resins; settings: mass soluble in 100 g of oligomer, 20° C.
Description: Test method: The mass of soluble ultraviolet absorber in 100 g of oligomer when the ambient temperature is 20° C.

Structure (SMILES)	Wavelength to which absorption can be red-shifted [1]	Absorption cut-off wavelength [2]	Maximum absorption peak in red shift direction [2]	Peak area ratio in waveband 280-360 nm [2]	Peak area ratio in waveband 361-380 nm [2]	Peak area ratio in waveband 381-400 nm [2]	Peak area ratio in waveband 401-450 nm [2]	Peak area ratio in waveband 280-450 nm [2]	Gardner color scale [3]	Solubility in cyclohexanedimethylene diisocyanate (H6XDI) [4]	Solubility in hexamethylene diisocyanate (HDI) trimer [4]	Solubility in tripropylene glycol diacrylate [4]
CCCCN1C(=O)c2cc3nn(-c4cc(C(C)(C)CC(C)(C)C)cc(C(C)(C)c5ccccc5)c4O)nc3cc2C1=O [Carboprotect, reference compound]	420 nm	435 nm	374 nm	56.2%	14.6%	18.5%	10.7%	100%	11.5	–	–	–
CCCCCCCCCCCCSc1ccc2nn(-c3cc(C)cc(C(C)(C)C)c3O)nc2c1 [RSUV-1]	–	416 nm	369 nm	58.1%	26.5%	13.6%	1.8%	100.0%	3.0	4.2 g	4.6 g	3.9 g
CCCCCCCCCCCCS(=O)(=O)c1ccc2nn(-c3cc(C)cc(C(C)(C)C)c3O)nc2c1 [RSUV-2]	–	430 nm	370 nm	65.4%	18.1%	11.8%	4.7%	100.0%	5.2	3 g	3.5 g	3.8 g
Cc1cc(-n2nc3ccc(Cl)cc3n2)c(O)c(C(C)(C)C)c1 [UV-326, 2′-(2′-hydroxy-3′-tert-butyl-5′-methylphenyl)-5-chlorobenzotriazole, reference compound]	–	410 nm	–	–	–	–	–	–	–	–	–	–
